The source of these data is patent US20070134355A1, “Use of plant parts of prickly pear (opuntia) and/or extracts therefrom for the treatment of depressions” (priority 2003, published 2007).

“And” between values parts separate entries of the source, which are not always exact repeats. Equal entries are not always repeated.

The test has as its system rats. The test is described as follows: forced swimming test in rats. The format is in vivo, rat. The conditions noted are these: percentage of inhibition against the control group. The procedure: The antidepressive efficacy has been tested by means of the so-called “forced swimming test” in rats. In this test rats are brought into an impasse during a defined period of five minutes (glass cylinder filled with water). In this test the rats reacted with a rigour referred to as immobilization time, which is interpreted to correlate with a depression. If the rats are treated with an antidepressively effective medicament prior to the test, the immobilization time decreases. Since other psychopharamaca such as anxiolytics or neuroleptics are not efficacious in this test, this test system is well suitable to detect antidepressive effects (R. D. Porsolt et al., Eur. J. Pharmacol. 47, 379-391 (1978); R. D. Porsolt et al., Adv. Pharmacol. Sci., 137-159 (1991)). In order to be efficacious, each of the heretofore known antidepressive agents has to be administered over a period of several days in this test, like in the case of patients. The test animals were treated either with the test substance or with a solvent only for control purposes or with the tricyclic antidepressive agent Imipramine in order to compare the efficacy. Imipramine was selected as the standard comparative substance, because it is one of the strongest antidepressive agents both in psychiatric practice and in animal model.
Tables 1 to 3 exemplarily show the efficacy of three different Opuntia extracts compared to the tricyclic antidepressive agent Imipramine as determined after a treatment period of 9 days. […] In this case, the inhibition was determined already after a treatment period of 3 days. For comparison purposes, the inhibition of the immobility was represented as the percentage of inhibition against the control group in each of the tables.

In turn, `COc1ccc(C(CN(C)C)C2(O)CCCCC2)cc1` (stereo not drawn) [Venlafaxine] displayed an Inhibition of immobility (dose 100 mg/kg, treatment period of 3 days) of 25%.

In the case of `CN(C)CCCN1c2ccccc2CCc2ccccc21` [Imipramine], the Inhibition of immobility runs as follows: (dose 20 mg/kg, treatment period of 9 days) 44%; (dose 30 mg/kg, treatment period of 9 days, 30 mg/kg) 64% and 68%.
